Laboratory results from publication PMC8244865, “Recruitment of phospholipase Cγ1 to the non-structural membrane protein pK15 of Kaposi Sarcoma-associated herpesvirus promotes its Src-dependent phosphorylation” (PLoS Pathogens, 2021).

How the values were obtained:
[1] = system: PLCγ1 tSH2 domain (Src-mediated phosphorylation, Y^783); experiment: in vitro Src kinase assay, 35mer-enhanced PLCγ1 tSH2 phosphorylation; assay type: biochemical; settings: 1.25–5.0 μM 12mer, 2.5 μM 35mer, 0.085 μM Src, 45 min, 37°C; pY783 Western blot
Description: Fig 7 The pK15 CT domain enhances Src-mediated phosphorylation of the PLCγ1 tSH2 domain. (A) The purified PLCγ1 tSH2 domain (0.6 μM) was incubated with limiting amounts (0.085 μM) of recombinant purified Src kinase expressed in insect cells in the presence of increasing concentrations (1.25–5 μM) of phosphorylated peptides representing the last 12 (pK15 12mer) or 35 (pK15 35mer) amino acids of the pK15 cytoplasmic domain for 1 hour at 37°C. The reaction was stopped using SDS sample buffer and analysed by SDS-PAGE and Western blot using an antibody to the PLCγ1 pY^783 residue (top panel) or to the His tag on the recombinant tSH2 domain (bottom panel). […]
To test the impact of a pK15 CT fragment (pK15 CT^N2) or phosphorylated pK15 peptides representing the last 12 (DDLp[…]) or 35 ([…]pYEEVLFRN) amino acids of pK15 CT on the Src-mediated phosphorylation of the PLCγ1 tSH2 domain, GST-pK15CT^N2 was first phosphorylated with Src in vitro as described in the preceding paragraph. […] The reaction mix was then analysed by Western blot using an antibody to the phosphorylated Y^783 in the linker region of the PLCγ1 tSH2 domain and an antibody to the 5x His tag. […] Following a 45 min incubation at 37°C, the reaction mixture was analysed by Western blot as above.

PLCγ1 nSH2 = target: T1, PLCγ1 nSH2 (Homo sapiens, UniProt P19174); experiment: 1H,15N HSQC NMR titration, PLCγ1 nSH2; assay type: binding; settings: 1H-15N HSQC titration
T1 construct: nSH2 (545–662): 180 ± 43 nM; thioredoxin (pETM22 fusion, purified on Ni column) (N, cleaved yes); made in house; host or cells: E. coli BL21(DE3)
T1 sequence (P19174 545-662): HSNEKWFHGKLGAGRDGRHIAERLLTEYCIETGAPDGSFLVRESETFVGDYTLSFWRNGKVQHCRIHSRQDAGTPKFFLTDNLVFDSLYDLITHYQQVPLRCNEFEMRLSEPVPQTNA
Description: Fig 5 Affinity of pK15 peptide for PLCγ1 tSH2 or individual SH2 domains. (A) Binding curves of several PLCγ1 fragments in the presence of 200 nM 5,6-FAM-labelled pK15 (12mer). All measurements were performed in triplicate. […] (B and C) Overlay of ^1H,^15N HSQC NMR spectra of nSH2 (B) and cSH2 (C) alone (in yellow) and in the presence of 2 molar equivalents of the pK15 12mer peptide (blue), measured with a 600 MHz spectrometer at 298 K. The protein concentration was 100 μM and the buffer contained 100 mM MES, 150 mM NaCl, 3 mM TCEP, pH 6.5. (D and E) Excerpts from ^1H-^15N HSQC spectra of nSH2 (D) and cSH2 (E) upon addition of increasing concentrations of the pK15 12mer peptide.
Next, we used Nuclear Magnetic Resonance (NMR) spectroscopy to further compare the interaction of the phosphorylated pK15 12mer to the isolated nSH2 and cSH2 domains (Fig 5B–5E). We recorded ^1H-^15N HSQC spectra of each of the two domains in the presence of increasing concentrations of the pK15 peptide. In this spectrum, each N-H group of the protein gives rise to one peak. […] A change in the position of a few NMR peaks of the amide groups of the protein upon addition of the peptide is indicative of binding. […] The behavior of the NMR peaks during the titration series, however, differed for the two SH2 domains, indicating different binding kinetics. […] In light of this, it is conceivable that the preference of pK15 CT for cSH2 in vivo may be determined by kinetic rather than thermodynamic factors.
NMR experiments were recorded at 298 K on a 600-MHz Bruker Avance III-HD spectrometer equipped with an inverse HCN cryogenic probehead (nitrogen-cooled) and running Topspin 3.2 software. 2D ^15N-HSQC spectra were recorded using States-TPPI for frequency discrimination, with water suppression achieved via a combination of WATERGATE and water flip-back pulses to preserve the water magnetization. NMR data were processed in Topspin and analysed in CcpNmr Analysis v2.4 [74].

DDLpYEEVLFPRN [pK15 12mer, phosphorylated peptide representing the last 12 amino acids of pK15 CT (DDLp…)]
inhibition of 35mer-induced tSH2 phosphorylation [1]: could inhibit the increased PLCγ1 tSH2 phosphorylation induced by the 35mer peptide | dissociation rate koff or association rate kon of nSH2–peptide complex relative to cSH2–peptide complex (PLCγ1 nSH2; 298 K, pH 6.5): more than one order of magnitude slower than the corresponding rate of the cSH2–peptide complex | NMR exchange regime (PLCγ1 nSH2; 600 MHz, 298 K, 100 μM protein, 100 mM MES, 150 mM NaCl, 3 mM TCEP, pH 6.5): slow exchange regime | affinity for nSH2 compared with cSH2 (NMR) (PLCγ1 nSH2; same saturating concentration of peptide, either nSH2 or cSH2): both domains bound the K15 peptide with similar affinity
